Series [1] addresses T1, IL33 and ST2 binding (Homo sapiens, UniProt O95760).
T1 sequence (O95760 112-270 limits assumed): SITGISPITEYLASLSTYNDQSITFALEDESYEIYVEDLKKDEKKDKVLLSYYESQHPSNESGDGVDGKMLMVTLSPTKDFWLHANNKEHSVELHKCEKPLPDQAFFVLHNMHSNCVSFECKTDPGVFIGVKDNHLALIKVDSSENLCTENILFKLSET
As to the kind of experiment: biochemical.

For series [2], the target named is T1, IL33 and ST2 binding.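 Note: plate ELISA with coated Flag-tagged human IL-33 and His-tagged human ST2, bound ST2 detected by anti-His HRP and TMB absorbance at 450 nm, 2 h compound incubation.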
Series [3] deals with Human liver cancer cell line HepG2 cells. As to the kind of experiment: Cellular viability, WST-8 assay, without or with human liver microsomes. Conditions: for Cellular viability (%) (+) microsome: HepG2, with human liver microsomes; for Cellular viability (%) (−) microsome: HepG2, without human liver microsomes. The class given is cell-based. As for the experimental part:
(§1) Human liver cancer cell line HepG2 cells were cultured in a medium (high glucose Dulbecco's Modified Eagle Medium, DMEM, HyClone) supplemented with 10% fetal bovine serum (FBS, HyClone) and 1% antibiotic in a thermostat maintained at 37° C. with 5% CO2.
(§2) HepG2 cells, which are adherent cells, were […] or presence of human liver microsomes (Gibco) and NADPH regenerating system.
(§3) Cell cultures were exchanged using […] of medium (high glucose Dulbecco's Modified Eagle Medium, DMEM, HyClone) and incubated for 24 hours.
(§4) After adding 10 μL of WST-8 (abCam), the absorbance was obtained at 460 nm after 5 seconds of orbital shaking with a microplate reader (Tecan, Spark©) 2 hours later.
(§5) The mean of the three values obtained in triplicate was calculated and expressed as % cellular viability compared to vehicle treatment.

In series [4] the test system is IL-6 secretion in the human mast cell line HMC 1.1. As to the kind of experiment: IL-6 production inhibition assay (IL-33 stimulated HMC 1.1 cells, IL-6 ELISA). Conditions: for inhibition at 1 µM: 1 μM compound, read-out: Inhibition of hIL-6 production (%) 1 μM; for inhibition at 1 µM / inhibition at 10 µM / inhibition at 0.1 µM: 24 hours; for inhibition at 10 µM: 10 μM compound, read-out: Inhibition of hIL-6 production (%) 10 μM; for EC50: read-out: Inhibition of hIL-6 production EC50; for inhibition at 0.1 µM: 0.1 μM compound, read-out: Inhibition of hIL-6 production (%) 0.1 μM. The class given is cell-based. Here is the method: Human mast cell line HMC 1.1 cells were cultured in medium (Iscove's Modified Dulbecco's Medium, IMDM, HyClone) supplemented with […] fetal bovine serum (FBS, HyClone) and 1% antibiotics and maintained at 37° C. with 5% CO2.
HMC 1.1 cells, which are non-adherent cells, were cultured in 0.5 mL of culture medium containing 200 nM of IL-33 wild type human recombinant protein after centrifugation of cells in culture flasks filled to […] capacity and incubated for 24 hours with […], 10 μM, 25 μM, 30 μM or 50 μM of Example compound.
Medium was harvested by centrifugation (2,000×g, 5 min) and stored at −80° C. until ELISA assay.
Experiments were performed according to the protocol using the Human IL-6 ELISA kit (abCam).
The average of the three values obtained in triplicate was calculated and the amount of IL-6 secretion was measured using a standard curve. The measured IL-6 secretion was converted to 100% based on the vehicle treatment sample value to obtain the vehicle %.
A general note: ELISA stands for enzyme-linked immunosorbent assay.

Series [5] is described as follows: Cellular viability, WST-8 assay, without or with human liver microsomes. The class given is cell-based. Here is the method: as §1, §2, §3, §4, §5
(In general: Tetrazolium assays rely on reduction of a dye to a coloured formazan, in cell work by metabolically active cells.)

The mark [6] stands for this setting: HepG2, with human liver microsomes, read-out: CC50 (μM) (+) microsome.
[7] abbreviates: HepG2 cells, HepG2, without human liver microsomes, read-out: CC50 (μM) (−) microsome.

Where two headings read alike, the source gives them in different places.

Usually IC50 stands for the concentration needed to halve the response being measured. For orientation: inhibition means the relative decrease from the control value, in per cent. The compound `CCOC(=O)c1nc(-c2ccc(C(F)(F)F)cc2)oc1-c1ccc([N+](=O)[O-])cc1` [Compound 34, Ethyl 5-(4-nitrophenyl)-2-(4-(trifluoromethyl)phenyl)oxazole-4-carboxylate] returned an IC50 on IL33 and ST2 binding [1] of 0.91 µM. In addition, the inhibition at IL33 and ST2 binding [2] (30 µM) is 108%. The inhibition at IL33 and ST2 binding [2] (100 µM) turned out to be 108%. In series [3] (at 100 μM), the “Cellular viability (%) (+) microsome” value stood at 85 at % and the “Cellular viability (%) (−) microsome” value was 87 at %.
The EC50 is the midpoint of the concentration-response curve. Take `CCOC(=O)c1nc(-c2ccc(C(F)(F)F)cc2)oc1-c1cccc(C#N)c1` [Compound 55, Ethyl 5-(3-cyanophenyl)-2-(4-(trifluoromethyl)phenyl)oxazole-4-carboxylate]: in series [4], the inhibition at 1 µM worked out at 45%, the inhibition at 10 µM stood at 52% and the EC50 is 0.09 µM. For the same compound, at IL33 and ST2 binding [2] (30 µM), the inhibition was 115%. The inhibition on IL33 and ST2 binding [2] (100 µM) is 116%. For the same compound, in series [3] (at 100 μM), the “Cellular viability (%) (+) microsome” value came to 91 at % and the “Cellular viability (%) (−) microsome” value is 90 at %.
What is called CC50 is the concentration at which the toxic effect on the cells reaches its halfway point. Take `CCOC(=O)c1nc(-c2ccc(SC)cc2)oc1-c1ccccc1` [Compound 90, Ethyl 2-(4-(methylthio)phenyl)-5-phenyloxazole-4-carboxylate]: in series [4], the inhibition at 0.1 µM was found to be 33%, the inhibition at 1 µM amounted to 54%, the inhibition at 10 µM was 55% and the EC50 turned out to be 0.49 µM. Also, in series [3] (at 135 μM), the “Cellular viability (%) (+) microsome” value amounted to 74 at % and the “Cellular viability (%) (−) microsome” value came out at 53 at %. Further, the CC50 at 24 h in series [5] (setting [6]) worked out at 40.8 µM. In series [5] (setting [7]), the CC50 at 24 h came to 14 µM.
In the case of `CN1CCN(CCNC(=O)c2nc(-c3cc(F)cc(F)c3)oc2-c2ccccc2[N+](=O)[O-])CC1` [Compound 238, 2-(3,5-Difluorophenyl)-N-(2-(4-methylpiperazin-1-yl)ethyl)-5-(2-nitrophenyl)oxazole-4-carboxamide], in series [4], the inhibition at 1 µM came out at 14%, the inhibition at 10 µM was found to be 45% and the EC50 was 6.3 µM. Also, the inhibition on IL33 and ST2 binding [2] (30 µM) came to 40%. Moreover, the inhibition on IL33 and ST2 binding [2] (100 µM) worked out at 103%. In series [3] (at 100 μM), the “Cellular viability (%) (+) microsome” value was determined as 53 at % and the “Cellular viability (%) (−) microsome” value is 49 at %. In addition, the CC50 at 24 h in series [5] (setting [6]) was found to be 21.3 µM. In series [5] (setting [7]), the CC50 at 24 h is 19 µM.
In the case of `CN(C)CCNC(=O)c1nc(-c2cccc(Cl)c2)oc1-c1ccccc1` [Compound 240, 2-(3-Chlorophenyl)-N-(2-(dimethylamino)ethyl)-5-phenyloxazole-4-carboxamide], in series [4], the inhibition at 1 µM is 6%, the inhibition at 10 µM amounted to 44% and the concentration giving a half-maximal response (EC50) amounted to 3.7 µM. Further, the inhibition at IL33 and ST2 binding [2] (30 µM) stood at 7%. The inhibition at IL33 and ST2 binding [2] (100 µM) is 70%. For the same compound, in series [3] (at 100 μM), the “Cellular viability (%) (+) microsome” value is recorded as 50 at % and the “Cellular viability (%) (−) microsome” value is given as 45 at %. The CC50 at 24 h in series [5] (setting [6]) turned out to be 6.36 µM. Besides, in series [5] (setting [7]), the 50% cytotoxic concentration (CC50) at 24 h was found to be 5.46 µM.
For `CSc1ccc(-c2nc(C(=O)NCCN(C)C)c(-c3ccccc3)o2)cc1` [Compound 271, N-(2-(Dimethylamino)ethyl)-2-(4-(methylthio)phenyl)-5-phenyloxazole-4-carboxamide], in series [4], the inhibition at 1 µM is 14%, the inhibition at 10 µM was 69% and the EC50 worked out at 0.86 µM. For the same compound, at IL33 and ST2 binding [2] (30 µM), the inhibition amounted to 31%. Besides, the inhibition on IL33 and ST2 binding [2] (100 µM) came to 105%. For the same compound, in series [3] (at 100 μM), the “Cellular viability (%) (+) microsome” value is given as 52 at % and the “Cellular viability (%) (−) microsome” value is 45 at %. Also, the CC50 at 24 h in series [5] (setting [6]) was 6.12 µM. Further, the CC50 at 24 h in series [5] (setting [7]) is 3.74 µM.
Regarding `CC(=O)NCCNC(=O)c1nc(-c2ccc(C(F)(F)F)cc2)oc1-c1ccccc1[N+](=O)[O-]` [Compound 285, N-(2-acetamidoethyl)-5-(2-nitrophenyl)-2-(4-(trifluoromethyl)phenyl)oxazole-4-carboxamide], the inhibition on IL33 and ST2 binding [2] (30 µM) amounted to 73%; at IL33 and ST2 binding [2] (100 µM), 72%. Besides, in series [3] (at 30 μM), the “Cellular viability (%) (+) microsome” value is 59 at %. Further, in series [3] (at 30 μM), the “Cellular viability (%) (−) microsome” value is on record as 54 at %.
For `CCNC(=O)c1nc(-c2ccc(C(F)(F)F)cc2)oc1-c1ccccc1` [Compound 294, N-Ethyl-5-phenyl-2-(4-(trifluoromethyl)phenyl)oxazole-4-carboxamide], in series [4], the inhibition at 0.1 µM turned out to be 50%, the inhibition at 1 µM was 88%, the inhibition at 10 µM is 94% and the half-maximal effective concentration (EC50) came out at 0.13 µM. The inhibition on IL33 and ST2 binding [2] (30 µM) came to 95%. Besides, in series [3] (at 160 μM), the “Cellular viability (%) (+) microsome” value came to 90 at % and the “Cellular viability (%) (−) microsome” value is 95 at %.
Regarding `CCNC(=O)c1nc(-c2ccc(C(F)(F)F)cc2)oc1-c1cccnc1` [Compound 307, N-Ethyl-5-(pyridin-3-yl)-2-(4-(trifluoromethyl)phenyl)oxazole-4-carboxamide], in series [4], the inhibition at 0.1 µM was determined as 61%, the inhibition at 1 µM stood at 69%, the inhibition at 10 µM is 79% and the EC50 was 0.11 µM. For the same compound, the inhibition on IL33 and ST2 binding [2] (30 µM) amounted to 106%. Moreover, in series [3] (at 160 μM), the “Cellular viability (%) (+) microsome” value was 108 at % and the “Cellular viability (%) (−) microsome” value is 105 at %.
In the case of `CCCNC(=O)c1nc(-c2ccc(C(F)(F)F)cc2)oc1-c1cccnc1` [Compound 308, N-Propyl-5-(pyridin-3-yl)-2-(4-(trifluoromethyl)phenyl)oxazole-4-carboxamide], in series [4], the inhibition at 1 µM turned out to be 56% and the inhibition at 10 µM was 62%. In series [3] (at 160 μM), the “Cellular viability (%) (+) microsome” value was found to be 29 at % and the “Cellular viability (%) (−) microsome” value is given as 27 at %.
As for `CCNC(=O)c1nc(-c2ccc(SC)cc2)oc1-c1ccccc1` [Compound 316, N-Ethyl-2-(4-(methylthio)phenyl)-5-phenyloxazole-4-carboxamide], in series [4], the inhibition at 0.1 µM was found to be 25%, the inhibition at 1 µM was determined as 69%, the inhibition at 10 µM amounted to 77% and the EC50 worked out at 0.35 µM. Besides, the inhibition at IL33 and ST2 binding [2] (30 µM) was found to be 47%. For the same compound, in series [3] (at 160 μM), the “Cellular viability (%) (+) microsome” value is recorded as 100 at % and the “Cellular viability (%) (−) microsome” value stood at 84 at %.
`CCCNC(=O)c1nc(-c2ccc(SC)cc2)oc1-c1ccccc1` [Compound 317, 2-(4-(Methylthio)phenyl)-5-phenyl-N-propyloxazole-4-carboxamide]: in series [4], the inhibition at 1 µM is 44% and the inhibition at 10 µM was 43%. Moreover, in series [3] (at 160 μM), the “Cellular viability (%) (+) microsome” value came out at 89 at % and the “Cellular viability (%) (−) microsome” value stood at 47 at %.
For the compound `CCNC(=O)c1nc(-c2ccc(C(F)(F)F)cc2)oc1-c1cc(O)cc(O)c1` [Compound 322, 5-(3,5-Dihydroxyphenyl)-N-ethyl-2-(4-(trifluoromethyl)phenyl)oxazole-4-carboxamide], in series [4], the inhibition at 1 µM turned out to be 86% and the inhibition at 10 µM turned out to be 73%. In series [3] (at 160 μM), the “Cellular viability (%) (+) microsome” value is recorded as 90 at % and the “Cellular viability (%) (−) microsome” value turned out to be 63 at %.
As for `CCNC(=O)c1nc(-c2ccc(C(F)(F)F)cc2)oc1-c1cc(O)c(O)c(O)c1` [Compound 323, N-Ethyl-2-(4-(trifluoromethyl)phenyl)-5-(3,4,5-trihydroxyphenyl)oxazole-4-carboxamide], in series [4], the inhibition at 1 µM amounted to 45% and the inhibition at 10 µM was 84%. For the same compound, in series [3] (at 160 μM), the “Cellular viability (%) (+) microsome” value worked out at 77 at % and the “Cellular viability (%) (−) microsome” value turned out to be 63 at %.
